Experimental findings from US20040001845A1, “Cytotoxic T-cell epitopes of HIV-1 virus” (priority 2002, published 2004) are described below.

The test system of this test is PBMC (HIV-1-specific CD8+ T cells) of subject AC-06. Put plainly: IFN-γ Elispot assay of HIV-1-specific CD8+ T cell responses in subject AC-06. Format: cell-based, human.
Setting [1] is: subject AC-06, 0 months after infection.
[2] abbreviates: subject AC-06, 2 months after infection.
[3] abbreviates: subject AC-06, 6 months after infection.
[4] abbreviates: subject AC-06, 12 months after infection.
Setting [5] is: subject AC-06, 18 months after infection.
[6] abbreviates: subject AC-06, 20 months after infection.
[7] abbreviates: subject AC-06, 24 months after infection.
The mark [8] stands for this setting: subject AC-06, 29.5 months after infection.
Where [9] appears, read: subject AC-06, 34 months after infection.

Turning to KTKPPLPSVKK [A3-KK11], the “magnitude of HIV-1-specific CD8+ T cell responses at the single epitope level” value (from here on “magnitude”) by setting is: under setting [1], 0 SFC/Million PBMC; under setting [2], 0 SFC/Million PBMC; under setting [3], 0 SFC/Million PBMC; under setting [4], 0 SFC/Million PBMC; under setting [5], 0 SFC/Million PBMC; under setting [6], 150 SFC/Million PBMC. In addition, the “magnitude” value runs as follows: under setting [7], 340 SFC/Million PBMC; under setting [8], 600 SFC/Million PBMC; under setting [9], 1200 SFC/Million PBMC.

Consider RPMTYKAAL [B7-RL9], for which the “magnitude” value under setting [1] stood at 0 SFC/Million PBMC; the “magnitude” value under setting [2] worked out at 0 SFC/Million PBMC; the “magnitude” value under setting [3] came out at 0 SFC/Million PBMC; the “magnitude” value under setting [4] is given as 0 SFC/Million PBMC; the “magnitude” value under setting [5] amounted to 0 SFC/Million PBMC; the “magnitude” value under setting [6] amounted to 120 SFC/Million PBMC. For the same sequence, the “magnitude” value is, setting by setting: under setting [7], 180 SFC/Million PBMC; under setting [8], 600 SFC/Million PBMC; under setting [9], 360 SFC/Million PBMC.

Consider HPRVSSEVHI [B7-HI10], for which the “magnitude” value is, setting by setting: under setting [1], 0 SFC/Million PBMC; under setting [2], 0 SFC/Million PBMC; under setting [3], 0 SFC/Million PBMC; under setting [4], 0 SFC/Million PBMC; under setting [5], 0 SFC/Million PBMC; under setting [6], 500 SFC/Million PBMC. In addition, the “magnitude” value is, setting by setting: under setting [7], 880 SFC/Million PBMC; under setting [8], 1800 SFC/Million PBMC; under setting [9], 1800 SFC/Million PBMC.

With TPQDLNTML [B7-TL9], the “magnitude” value by setting is: under setting [1], 0 SFC/Million PBMC; under setting [2], 0 SFC/Million PBMC; under setting [3], 0 SFC/Million PBMC; under setting [4], 0 SFC/Million PBMC; under setting [5], 0 SFC/Million PBMC; under setting [6], 0 SFC/Million PBMC. In addition, the “magnitude” value came out at 0 SFC/Million PBMC under setting [7], 740 SFC/Million PBMC under setting [8] and 1300 SFC/Million PBMC under setting [9].

Consider GIPHPAGLK [A3-GK9], for which the “magnitude” value was determined as 0 SFC/Million PBMC under setting [1]; 0 SFC/Million PBMC under setting [2]; 0 SFC/Million PBMC under setting [3]; 0 SFC/Million PBMC under setting [4]; 0 SFC/Million PBMC under setting [5]; 0 SFC/Million PBMC under setting [6]. In addition, the “magnitude” value worked out at 0 SFC/Million PBMC under setting [7], 240 SFC/Million PBMC under setting [8] and 1800 SFC/Million PBMC under setting [9].

Take HMYISKKAK [A3-HK9]: the “magnitude” value was 0 SFC/Million PBMC under setting [1]; 0 SFC/Million PBMC under setting [2]; 0 SFC/Million PBMC under setting [3]; 0 SFC/Million PBMC under setting [4]; 0 SFC/Million PBMC under setting [5]; 110 SFC/Million PBMC under setting [6]. In addition, the “magnitude” value under setting [7] is 320 SFC/Million PBMC, the “magnitude” value under setting [8] turned out to be 1000 SFC/Million PBMC and the “magnitude” value under setting [9] is recorded as 1600 SFC/Million PBMC.

For the sequence RIRTWKSLVK [A3-RK10], the “magnitude” value was 0 SFC/Million PBMC under setting [1]; 0 SFC/Million PBMC under setting [2]; 0 SFC/Million PBMC under setting [3]; 0 SFC/Million PBMC under setting [4]; 0 SFC/Million PBMC under setting [5]; 180 SFC/Million PBMC under setting [6]. In addition, the “magnitude” value was found to be 270 SFC/Million PBMC under setting [7], 1100 SFC/Million PBMC under setting [8] and 1600 SFC/Million PBMC under setting [9].

For the sequence ERILSTYLGR [A3-ER10], the “magnitude” value is, setting by setting: under setting [1], 0 SFC/Million PBMC; under setting [2], 0 SFC/Million PBMC; under setting [3], 0 SFC/Million PBMC; under setting [4], 0 SFC/Million PBMC; under setting [5], 0 SFC/Million PBMC; under setting [6], 0 SFC/Million PBMC. The “magnitude” value runs as follows: under setting [7], 310 SFC/Million PBMC; under setting [8], 460 SFC/Million PBMC; under setting [9], 1300 SFC/Million PBMC.

RLRDLLLIVTR [A3-RR11]: the “magnitude” value runs as follows: under setting [1], 0 SFC/Million PBMC; under setting [2], 0 SFC/Million PBMC; under setting [3], 0 SFC/Million PBMC; under setting [4], 0 SFC/Million PBMC; under setting [5], 0 SFC/Million PBMC; under setting [6], 0 SFC/Million PBMC. The “magnitude” value reads like this: under setting [7], 260 SFC/Million PBMC; under setting [8], 230 SFC/Million PBMC; under setting [9], 320 SFC/Million PBMC.

On to HPVHAGPIA [B7-HA9], for which the “magnitude” value was found to be 0 SFC/Million PBMC under setting [1]; 0 SFC/Million PBMC under setting [2]; 0 SFC/Million PBMC under setting [3]; 0 SFC/Million PBMC under setting [4]; 0 SFC/Million PBMC under setting [5]; 0 SFC/Million PBMC under setting [6]. In addition, the “magnitude” value turned out to be 0 SFC/Million PBMC under setting [7], 700 SFC/Million PBMC under setting [8] and 360 SFC/Million PBMC under setting [9].

For SPRTLNAWV [B7-SV9], the “magnitude” value under setting [1] was found to be 0 SFC/Million PBMC; the “magnitude” value under setting [2] turned out to be 0 SFC/Million PBMC; the “magnitude” value under setting [3] is 0 SFC/Million PBMC; the “magnitude” value under setting [4] came out at 0 SFC/Million PBMC; the “magnitude” value under setting [5] amounted to 0 SFC/Million PBMC; the “magnitude” value under setting [6] was 0 SFC/Million PBMC. In addition, the “magnitude” value stood at 0 SFC/Million PBMC under setting [7], 680 SFC/Million PBMC under setting [8] and 120 SFC/Million PBMC under setting [9].

Take KLVDFRELNK [A3-KK10]: the “magnitude” value is 0 SFC/Million PBMC under setting [1]; 0 SFC/Million PBMC under setting [2]; 0 SFC/Million PBMC under setting [3]; 0 SFC/Million PBMC under setting [4]; 0 SFC/Million PBMC under setting [5]; 0 SFC/Million PBMC under setting [6]. Also, the “magnitude” value runs as follows: under setting [7], 70 SFC/Million PBMC; under setting [8], 1200 SFC/Million PBMC; under setting [9], 1800 SFC/Million PBMC.
